Nine molecules from patent US9024041B2, “P38 MAP kinase inhibitors” (Respivert Ltd., priority 2010, dated 2015) can be followed below.

Data set [1] concerns the target T1, Recombinant, phosphorylated p38 MAPKγ (MAPK12:Invitrogen) (Homo sapiens, UniProt P53778).
T1 construct: purchased Invitrogen
T1 sequence (P53778 1-367): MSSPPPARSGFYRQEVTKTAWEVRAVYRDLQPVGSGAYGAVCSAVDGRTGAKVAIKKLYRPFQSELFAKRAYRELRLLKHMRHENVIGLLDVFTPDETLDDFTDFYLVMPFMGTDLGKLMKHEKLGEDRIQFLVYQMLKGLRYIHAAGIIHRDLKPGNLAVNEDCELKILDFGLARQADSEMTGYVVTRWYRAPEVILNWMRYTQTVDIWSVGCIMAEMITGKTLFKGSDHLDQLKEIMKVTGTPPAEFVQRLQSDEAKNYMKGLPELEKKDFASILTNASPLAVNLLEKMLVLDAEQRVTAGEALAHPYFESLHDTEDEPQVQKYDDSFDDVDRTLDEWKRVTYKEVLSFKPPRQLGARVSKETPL
The data set is described as follows: p38 MAPKγ enzyme inhibition assay (FRET, Z-LYTE). Format: biochemical. As to conditions: 2 hr pre-incubation, ATP 100 μM; read-out: Enzyme Inhibition IC50 p38γ.

Data set [2] concerns the target T2, p38 MAPKα isoform (MAPK14: Invitrogen) (Homo sapiens, UniProt Q16539).
T2 construct: purchased Invitrogen
The data set is described as follows: p38 MAPKα enzyme inhibition assay (FRET, Z-LYTE, via MAPKAP-K2 activation). Format: biochemical. As to conditions: 2 hr pre-incubation, ATP 10.0 μM; read-out: Enzyme Inhibition IC50 p38α.
Experimental: The enzyme inhibitory activities of compounds disclosed herein were determined by fluorescence resonance energy transfer (FRET) using synthetic peptides labelled with both donor and acceptor fluorophores (Z-LYTE, Invitrogen Ltd., Paisley, UK). Recombinant, phosphorylated p38 MAPKγ (MAPK12:Invitrogen) was diluted in HEPES buffer, mixed with the test compound at the desired final concentrations and incubated for 2 hr at RT. The FRET peptide (2 μM) and ATP (100 μM) were added to the enzyme/compound mixture and incubated for 1 hr. Development reagent (protease) was added for 1 hr prior to detection in a fluorescence microplate reader (Varioskan® Flash, ThermoFisher Scientific). The site-specific protease cleaves non-phosphorylated peptide only and eliminates the FRET signal. Phosphorylation levels of each reaction were calculated using the ratio of coumarin emission (donor) over fluorescein emission (acceptor) for which high ratios indicate high phosphorylation and low ratios indicate low phosphorylation levels.
For the p38 MAPKα isoform (MAPK14: Invitrogen), enzyme activity was evaluated indirectly by determining the level of activation/phosphorylation of the down-stream molecule, MAPKAP-K2. The p38 MAPKα protein was mixed with the test compound for 2 hr at RT. […] Development reagent was then added and the mixture incubated for 1 hr before detection by fluorescence completed the assay protocol.

For data set [3], the system named is LPS-induced TNFα release in d-U937 cells. The data set is described as follows: LPS-induced TNFα release in d-U937 cells. Format: cell-based. The conditions noted are these: Homo sapiens, dU937, 4 h; read-out: LPS/TNFα REC50 d-U937. On the procedure: (§1) Cellular Potency as Determined by LPS-Induced TNFα/IL-8 Release in d-U937Cells
(§2) U937 cells, a human monocytic cell line, were differentiated to macrophage-type cells by incubation with phorbol myristate acetate (PMA; 100 ng/mL) for 48 to 72 hr. Cells were pre-incubated with final concentrations of test compound for 2 hr and were then stimulated with 0.1 μg/mL of LPS (from E. Coli: O111:B4, Sigma) for 4 hr. The supernatant was collected for determination of TNFα and IL-8 concentrations by sandwich ELISA (Duo-set, R&D systems). […] The relative 50% effective concentration (REC50) was determined from the resultant concentration-response curve. The inhibition of IL-8 production was calculated at each concentration of test compound by comparison with vehicle control. The 50% inhibitory concentration (IC50) was determined from the resultant concentration-response curve.

The subject of data set [4] is Poly I:C-induced ICAM-1 expression in BEAS2B cells. The data set is described as follows: Poly I:C-induced ICAM-1 induction in BEAS2B cells. Format: cell-based. The conditions noted are these: Homo sapiens, BEAS-2B, poly I:C 1 μg/mL, 18 hr, read-out: PolyI:C/ICAM1 IC50 BEAS2B. On the procedure:
Cellular Potency as Determined by Poly I:C-Induced ICAM-1 Induction in BEAS2B Cells
Poly I:C (1 μg/mL) (Invivogen Ltd., San Diego, Calif.) was transfected into BEAS2B cells (human bronchial epithelial cells, ATCC) with Oligofectamine (Invitrogen, Carlsbad, Calif.). Cells were pre-incubated with final concentrations of test compounds for 2 hr and the level of ICAM1 expression on the cell surface was determined by cell-based ELISA. At a time point 18 hr after poly I:C transfection, cells were fixed with 4% formaldehyde in PBS and then endogenous peroxidase was quenched by the addition of 0.1% sodium azide and 1% hydrogen peroxide. Cells were washed with wash-buffer (0.1% Tween in PBS: PBS-Tween). and after blocking the wells with 5% milk in PBS-Tween for 1 hr, the cells were incubated with anti-human ICAM-1 antibody (Cell Signaling Technology, Danvers, Mass.) in 1% BSA PBS overnight at 4° C. The cells were washed with PBS-Tween and incubated with the secondary antibody (HRP-conjugated anti-rabbit IgG, Dako Ltd., Glostrup, Denmark). The ICAM-1 signal was detected by adding substrate and reading the absorbance at 450 nm against a reference wavelength of 655 nm using a spectrophotometer. The cells were then washed with PBS-Tween and total cell numbers in each well were determined by reading absorbance at 595 nm after Crystal Violet staining and elution by 1% SDS solution. The measured OD 450-655 readings were corrected for cell number by dividing with the OD595 reading in each well. The inhibition of ICAM-1 expression was calculated at each concentration of test compound by comparison with vehicle control. The 50% inhibitory concentration (IC50) was determined from the resultant concentration-response curve.

Data set [5] deals with Differentiated U937 cells. The data set is described as follows: MTT assay: cell viability on exposure to test compounds. Format: cell-based, human. The conditions noted are these: percentage loss of cell viability vs vehicle, 1 μg/mL; for MTT Assay (Viability) 4 h d-U937: 5% FCS; for MTT Assay (Viability) 24 h d-U937: 10% FCS. How it is done:
MTT Assay: Determination of Cell Viability on Exposure to Test Compounds
Differentiated U937 cells were pre-incubated with each test compound under two protocols: the first for 4 hr in 5% FCS and the second in 10% FCS for 24 h. The supernatant was replaced with 200 μL of new media and 10 μL of MTT stock solution (5 mg/mL) was added to each well. After incubation for 1 hr the media were removed, 200 μL of DMSO was added to each well and the plates were shaken lightly for 1 hr prior to reading the absorbance at 550 nm. The percentage loss of cell viability was calculated for each well relative to vehicle (0.5% DMSO) treatment. Consequently an apparent increase in cell viability for drug treatment relative to vehicle is tabulated as a negative percentage.
On the technique in general: Formazan colour is commonly taken as a measure of viable cells.

Data set [6] relates to LPS-induced TNFα release in THP-1 cells. The data set is described as follows: LPS-induced TNFα release in THP-1 cells. Format: cell-based. The conditions noted are these: Homo sapiens, 3 μg/mL LPS, 4 hr. On the procedure:
Cellular Potency as Determined by LPS-Induced TNFα Release in THP-1 Cells
THP-1 cells, a human monocytic cell line, were stimulated with 3 μg/mL of LPS (from E. Coli; 0111:B4, Sigma) for 4 hr and the supernatant collected for determination of the TNFα concentration by sandwich ELISA (Duo-set, R&D systems). The inhibition of TNFα production was calculated at each concentration by comparison with vehicle control. The 50% inhibitory concentration (IC50) was determined from the resultant concentration-response curve.

The subject of data set [7] is LPS-induced IL-8 release in d-U937 cells. The data set is described as follows: LPS-induced IL-8 release in d-U937 cells. The data set is classed as cell-based. The conditions noted are these: Homo sapiens, dU937, 0.1 μg/mL LPS, 4 hr. How it is done: as §1, §2

Molecules are shown by their SMILES.

T2 sequence (Q16539 whole entry, canonical isoform): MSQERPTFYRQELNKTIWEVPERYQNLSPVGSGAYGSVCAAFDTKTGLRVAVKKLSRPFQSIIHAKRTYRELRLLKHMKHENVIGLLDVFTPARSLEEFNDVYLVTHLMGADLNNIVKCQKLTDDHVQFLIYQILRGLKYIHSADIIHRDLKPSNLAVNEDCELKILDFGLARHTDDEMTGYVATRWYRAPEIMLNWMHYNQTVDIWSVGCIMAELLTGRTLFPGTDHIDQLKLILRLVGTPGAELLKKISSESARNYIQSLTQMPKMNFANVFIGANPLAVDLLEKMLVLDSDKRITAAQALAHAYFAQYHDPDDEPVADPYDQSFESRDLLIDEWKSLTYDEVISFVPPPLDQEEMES

Take `COCC(=O)Nc1cc(Oc2ccc(NC(=O)Nc3cc(C4(C)CCCCC4)nn3-c3ccc(C)cc3)c3ccccc23)ccn1` [Example 26, 2-methoxy-N-(4-(4-(3-(3-(1-methylcyclohexyl)-1-p-tolyl-1H-pyrazol-5-yl)ureido)naphthalen-1-yloxy)pyridin-2-yl)acetamide]: the IC50 came to 779 nM in data set [1]; 48.2 nM in data set [2]; 4.4 nM in data set [4]; 3.5 nM in data set [6]; 1 nM in data set [7]. Also, in data set [3], the EC50 is 0.4 nM. Also, in data set [5], the “MTT Assay (Viability) 4 h d-U937” value is on record as −27.9%. Further, the “MTT Assay (Viability) 24 h d-U937” value in data set [5] is given as −33.2%.

With `CNC(=O)Nc1cc(Oc2ccc(NC(=O)Nc3cc(C(C)(C)C)nn3-c3ccc(OC)cc3)c(C)c2C)ccn1` [Example 37, 1-(4-(4-(3-(3-tert-butyl-1-(4-methoxyphenyl)-1H-pyrazol-5-yl)ureido)-2,3-dimethylphenoxy)pyridin-2-yl)-3-methylurea], the IC50 in data set [1] was 117 nM; in data set [2], 29.1 nM; in data set [4] it was 2.6 nM; in data set [6], 1.5 nM; in data set [7] it was 18.1 nM. Moreover, the EC50 in data set [3] came out at 1.4 nM. Besides, the “MTT Assay (Viability) 4 h d-U937” value in data set [5] is 5.3%. The “MTT Assay (Viability) 24 h d-U937” value in data set [5] is listed as 42.7%.

As to `COCC(=O)Nc1cc(Oc2ccc(NC(=O)Nc3cc(C(C)(C)C)nn3-c3ccc(O)cc3)c3ccccc23)ccn1` [Example 5, N-(4-((4-(3-(3-(tert-Butyl)-1-(4-hydroxyphenyl)-1H-pyrazol-5-yl)ureido)naphthalen-1-yl)oxy)pyridin-2-yl)-2-methoxyacetamide], the IC50 in data set [1] was 88.9 nM; in data set [2] it was 1.7 nM; in data set [4], 6.7 nM; in data set [6] it was 0.4 nM; in data set [7] it was 0.7 nM. For the same molecule, the EC50 in data set [3] stood at 0.66 nM. Moreover, in data set [5], the “MTT Assay (Viability) 4 h d-U937” value was determined as 4.5%. In addition, the “MTT Assay (Viability) 24 h d-U937” value in data set [5] is −19.9%.

Turning to `COCC(=O)Nc1cc(COc2ccc(NC(=O)Nc3cc(C(C)(C)C)nn3-c3ccc(OC)nc3)c(C)c2C)ccn1` [Example 61, N-(4-((4-(3-(3-tert-butyl-1-(6-methoxypyridin-3-yl)-1H-pyrazol-5-yl)ureido)-2,3-dimethylphenoxy)methyl)pyridin-2-yl)-2-methoxy acetamide], the IC50 in data set [1] was 2810 nM; in data set [2] it was 12.8 nM; in data set [4], > 1700 nM; in data set [6], 1260 nM; in data set [7], 204 nM. For the same molecule, the EC50 in data set [3] is 120 nM. Moreover, the “MTT Assay (Viability) 4 h d-U937” value in data set [5] came out at 3.5%. The “MTT Assay (Viability) 24 h d-U937” value in data set [5] is recorded as −5.1%.

On to `COCC(=O)Nc1cc(Oc2ccc(NC(=O)Nc3cc(C4CCOCC4)nn3-c3ccc(C)cc3)c3ccccc23)ccn1` [Example 28, 2-methoxy-N-(4-(4-(3-(3-(tetrahydro-2H-pyran-4-yl)-1-p-tolyl-1H-pyrazol-5-yl)ureido)naphthalen-1-yloxy)pyridin-2-yl)acetamide], for which the IC50 in data set [1] worked out at 9300 nM; in data set [2], 1.4 nM; in data set [4], 1580 nM; in data set [6] it was 41.3 nM; in data set [7], 62.7 nM. The EC50 in data set [3] worked out at 7.1 nM. Also, the “MTT Assay (Viability) 4 h d-U937” value in data set [5] is recorded as −23.7%. Also, the “MTT Assay (Viability) 24 h d-U937” value in data set [5] was −34.5%.

`COCC(=O)Nc1cc(Oc2ccc(NC(=O)Nc3cc(C(C)(C)C)nn3-c3ccc(NS(C)(=O)=O)cc3)c3ccccc23)ccn1` [Example 2, N-(4-(4-(3-(3-tert-Butyl-1-(4-(methylsulfonamido)phenyl)-1H-pyrazol-5-yl)ureido)naphthalen-1-yloxy)pyridin-2-yl)-2-methoxyacetamide]: the IC50 in data set [1] was 42.3 nM; in data set [2] it was 13 nM; in data set [4] it was 4.1 nM; in data set [6], 1.3 nM; in data set [7] it was 7.2 nM. Besides, in data set [3], the EC50 worked out at 0.4 nM. In addition, in data set [5], the “MTT Assay (Viability) 4 h d-U937” value is −13.2%. Moreover, the “MTT Assay (Viability) 24 h d-U937” value in data set [5] worked out at 15.1%.

Take `COCC(=O)Nc1cc(Oc2ccc(NC(=O)Nc3cc(C(C)(C)C)nn3-c3cccc(OC)c3)c3ccccc23)ccn1` [Example 36, N-(4-(4-(3-(3-tert-butyl-1-(3-methoxyphenyl)-1H-pyrazol-5-yl)ureido)naphthalen-1-yloxy)pyridin-2-yl)-2-methoxyacetamide]: the IC50 in data set [1] came out at 153 nM; in data set [2], 15.1 nM; in data set [4], 4.9 nM; in data set [6], 0.8 nM; in data set [7], 0.8 nM. In addition, the EC50 in data set [3] worked out at 0.1 nM. Moreover, in data set [5], the “MTT Assay (Viability) 4 h d-U937” value is on record as −5.2%. Also, the “MTT Assay (Viability) 24 h d-U937” value in data set [5] is on record as −1.6%.

As for `CC(C)(C)c1cc(NC(=O)Nc2ccc(Oc3ccnc(NC(=O)NC4CC4)c3)c3ccccc23)n(-c2ccc(S(C)(=O)=O)cc2)n1` [Example 47, 1-(3-tert-butyl-1-(4-(methylsulfonyl)phenyl)-1H-pyrazol-5-yl)-3-(4-(2-(3-cyclopropylureido)pyridin-4-yloxy)naphthalen-1-yl)urea], the IC50 in data set [1] was found to be 262 nM; in data set [2] it was 8.4 nM; in data set [4], 2.4 nM; in data set [6], 17.3 nM; in data set [7], 24.3 nM. Also, the EC50 in data set [3] turned out to be 17 nM. The “MTT Assay (Viability) 4 h d-U937” value in data set [5] worked out at 3.5%. Besides, the “MTT Assay (Viability) 24 h d-U937” value in data set [5] is recorded as −21.7%.

For `COCC(=O)Nc1cc(Oc2ccc(NC(=O)Nc3cc(C4CC4)nn3-c3ccc(C)cc3)c3ccccc23)ccn1` [Example 24, N-(4-((4-(3-(3-cyclopropyl-1-p-tolyl-1H-pyrazol-5-yl)ureido)naphthalen-1-yl)oxy)pyridin-2-yl)-2-methoxyacetamide], the IC50 in data set [1] is 1340 nM; in data set [2], 1.5 nM; in data set [4], 110 nM; in data set [6] it was 11.8 nM; in data set [7] it was 35.6 nM. The EC50 in data set [3] stood at 3.3 nM. In addition, the “MTT Assay (Viability) 4 h d-U937” value in data set [5] was −10.8%. In addition, in data set [5], the “MTT Assay (Viability) 24 h d-U937” value is −7.4%.
